# Source: US20030175438A1, “Treatments of solid substrates to enhance durability of treatments placed thereon” (priority 2002, published 2003)
# Assay: Bromphenol Blue (BPB) Extraction Method, spectrophotometric at 595 nm (modified CTM 0824), on treated fabric
# Assay type: physicochemical
# Settings: for Strike Rate - % BPB Extraction: No Boil, Table XIII
# Protocol: Sample Preparation: Fabric samples were obtained from the JoAnn fabric chain and were commercial fabrics. The fabrics were cut into rectangular size and were about 1½ inches by 2 inches, and were treated in 0.15 weight percent active antimicrobial agent placed in an Erlenmeyer flask. The agent used in this example was N, N-dimethyl-N-Octadecyl-3-(trimethoxysilyl)propanaminium chloride. The treatment solutions were allowed to hydrolyze from the trimethoxysilyl form to the trisilanol form before adding the fabrics. This takes only a few minutes to essentially complete. The solution temperature was raised to 100° C. before treating the fabrics for 60 seconds by immersion in the solutions with moderate agitation of the solution within the flask. After removing the samples from the hot solution, they were nip rolled to remove excess liquid. Wet Weight Pickup (WWP) was targeted to 100%. The samples were air dried before testing unless otherwise noted. The Extraction, stated in percent, was measured using the Bromphenol Blue Extraction Method using spectrophotometric determination. This method is CTM 0824, which has been modified for use herein in the following manner. The chlorinated solvent has been eliminated and the wavelength is 595 nm. Further, Dow Corning® A521 has been substituted for the Triton.RTM. X-100 wetting agent of the test. What is measured is the diminution of the BPB Absorbance at 595 nm relative to the BPB standard solution and it is reported in percent Extraction. Antimicrobial efficacy was determined using the CTM-0923 Dynamic Shake Flask Test unless otherwise stated.
# The antimicrobial agent used in this example was the same as that used in example 1. The samples were handled the same as in example 1 with the exception of the following. Samples were air and/or oven dried before testing. The % Extraction was measured using the BPB Extraction Method using spectrophotometric determination at 595 nm. If determined, antimicrobial efficacy was determined using the CTM-0923 Dynamic Shake Flask Test. Co-treatments the addition of the fabric to a 0.20 molar solution of the anion plus 0.15 WPA antimicrobial agent. The co-treatment is carried out at 100° C., and the fabric was moderately agitated for 60 seconds. The antimicrobial treatment is the addition of the fabric to a solution of 0.15 WPA antimicrobial agent held at 100° C. with moderate agitation for 60 seconds. Excess solution is removed from the samples, and the WWP is determined by weighing. Boiling was done with 200 milliliters of distilled water in a glass container in a microwave oven. Power setting was 30%, and the solution was gently boiled for 30 minutes. Sample size was nominally 1 gram and fresh water was used for each boiling study. The testing results can be found on Table XIII to XIV, respectively, infra. To differentiate between the application rate of the antimicrobial on the fabric, 25% of the normal sample size, or 0.25 grams of fabric was used to obtain the BPB Extraction values that ranged between 5 and 99%. This yielded values of percent BPB extraction that were in the linear range of the test procedure. Using larger samples creates an inaccurate test.
compound,measurement,setting,value
"CCCCCCCCCCCCCCCCCC[N+](C)(C)CCC[Si](OC)(OC)OC.[Cl-] [AMT, N, N-dimethyl-N-Octadecyl-3-(trimethoxysilyl)propanaminium chloride]",BOILED IN WATER % EXTRACTION,"130° C./30 minutes, Table XII",27%
same,% BPB EXTRACTION CHANGE,"COTTON, boiled vs not boiled, Table IV",−1%
same,EXTRACTION CHANGE,"COTTON, boiled vs not boiled, Table VI",0%
same,% Extraction @ 595 nm,"NYLON, boiled 30 minutes, Table VI",11%
same,% BPB EXTRACTION @ 595 nm,"NYLON, boiled, Table IX",19%
same,% BPB EXTRACTION @ 595 nm,"NYLON, not boiled, Table IX",85%
same,Boiling Durability % BPB EXTRACTION @ 595 nm,"NYLON, not boiled, Table XVII",80%
same,Strike Rate - % BPB Extraction,"Nylon, 0.25 grams of fabric",8.01%
same,Strike Rate - % BPB Extraction,"Nylon, treatment at pH = 11",45.1%
same,Strike Rate - % BPB Extraction,"PET Staple, treatment at pH = 11",75.82%
same,Boiling Durability - % BPB Extraction,"PET, Boil 30 min., Table XIV",17.9%
same,Strike Rate - % BPB Extraction,"PET, treatment at pH = 11",62.57%
same,% BPB EXTRACTION @ 595 nm,"PET, boiled 30 minutes, Table XV",36%
same,% EXTRACTION CHANGE,"PET, boiled vs not boiled, Table XVII",−64%
same,% BPB EXTRACTION @ 595 nm,"PET, not boiled, Table III",94%
same,Strike Rate - % BPB Extraction,"Rayon, 0.25 grams of fabric",6.94%
